The record followed here is patent publication US10046060B2, “Co-administration of an agent linked to an internalization peptide with an anti-inflammatory” (NoNO Inc., priority 2007, dated 2018).

“Also recorded” adds a separate entry of the source. Ends that are not written are not given here.

The subject of series [1] is Beagle dogs. Nature of the series: GLP 14-day intravenous toxicity study (CRM Study No. 501448): clinical signs and plasma histamine. The series is classed as in vivo, dog. As for the experimental part:
Blood samples (approximately 1 mL) were collected from all animals on Days 1, 6 and 12 at predose, 5 and 15 minutes post injection. Blood samples were collected by venipuncture (jugular, saphenous and cephalic) into tubes containing EDTA. The samples were then centrifuged (within 30 minutes of collection) in a refrigerated centrifuge (ca. 4° C.) at 2700 rpm for 10 minutes. Plasma were separated into a second tube with the appropriate label and stored at −80° C. until analysis at CRM. Plasma samples were used for investigating histamine levels. Samples from animals dosed intravenously with Tat-NR2B9c were analyzed using a validated method.

Series [2] concerns Beagle dogs. Nature of the series: GLP cardiovascular telemetry study, escalating doses (CRM Study No. 691106). Format: in vivo, dog. Here is the method: In a GLP cardiovascular telemetry study in unrestrained conscious Beagle dogs (CRM Study No. 691106), 6 animals (3 males, 3 females) were administered escalating doses of Tat-NR2B9c (0.25, 1.0, or 5.0 mg/kg gross peptide), with a washout period of 3 days between dose levels. […] Moreover, the time-frame between the low dose (0.25 mg/kg) and the high dose (5.0 mg/kg) was about 6 days, i.e., of insufficient duration to allow the generation of an immune response. The effect is thus caused by a direct degranulation of mast cells causing histamine release.

The next series deals with rats. The experiment in a line: Mean arterial pressure (MAP) in rats after Tat peptides with or without anti-inflammatory agents. The note with it: 7.5 mg/kg bolus; FIG. 7.

As to YGRKKRRQRRRKLSSIESDV [Tat-NR2B9c], the “Lethargy and unpalpable pulse as characterized by attending veterinarian” value in the series with Beagle dogs [1] (10 mg/kg daily i.v.) is given as “severe hypotensive reaction”. In addition, in the series on Beagle dogs [1] (10 mg/kg daily i.v., 14 days, all animals), the Clinical signs result is reported as “treatment-related clinical signs”. In the series with Beagle dogs [1] (any dose level), the “Change of histamine levels during 14-day repeated dosing” value is “no consistent increase in histamine levels”. Besides, the Plasma histamine levels result with Beagle dogs [1] (immediately following the first administration, naive dogs) is given as “increased histamine levels”. In the series with Beagle dogs [2] (5 mg/kg), the “Dogs with transient drop in blood pressure” value is given as 4 of 6 and the “Duration of transient drop in blood pressure” value is listed as “approximately 30 minutes”. In addition, the “Effects on blood pressure” value in the series on Beagle dogs [2] (0.25 or 1.0 mg/kg) is listed as “No effects”. The “Effect on MAP (printed MAT) after injection” value in the series on rats was “rapid and transient reduction; also recorded: reduction in blood pressure”.
